Test results taken from patent EP4813991A1 (iLeadBMS Co., Ltd., priority 2023, dated 2025).
Where two headings read alike, the source gives them in different places.

Assays:
[1] = biological target: T1, CDK12 (Homo sapiens, UniProt Q9NYV4); test: CDK12 kinase inhibitory activity assay (33P-ATP filter binding); assay type: biochemical; conditions: kinase reaction 120 minutes, 33P-gamma-ATP; read-out: CDK12 IC50
Procedure, shortened: (§1)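 Compound in 9 concentrations pre-incubated 20 min with kinase and substrate, then ^33P-γ-ATP added and reacted 120 min at room temperature. Phosphorylated substrate captured on filter, washed with 0.75 % phosphoric acid and counted; activity as % of DMSO control, IC50 fitted.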

[2] = biological target: CDK13 (Homo sapiens, UniProt Q14004); test: CDK13 kinase inhibitory activity assay (33P-ATP filter binding); assay type: biochemical
Sequence of CDK13 (Q14004 whole entry, species assumed): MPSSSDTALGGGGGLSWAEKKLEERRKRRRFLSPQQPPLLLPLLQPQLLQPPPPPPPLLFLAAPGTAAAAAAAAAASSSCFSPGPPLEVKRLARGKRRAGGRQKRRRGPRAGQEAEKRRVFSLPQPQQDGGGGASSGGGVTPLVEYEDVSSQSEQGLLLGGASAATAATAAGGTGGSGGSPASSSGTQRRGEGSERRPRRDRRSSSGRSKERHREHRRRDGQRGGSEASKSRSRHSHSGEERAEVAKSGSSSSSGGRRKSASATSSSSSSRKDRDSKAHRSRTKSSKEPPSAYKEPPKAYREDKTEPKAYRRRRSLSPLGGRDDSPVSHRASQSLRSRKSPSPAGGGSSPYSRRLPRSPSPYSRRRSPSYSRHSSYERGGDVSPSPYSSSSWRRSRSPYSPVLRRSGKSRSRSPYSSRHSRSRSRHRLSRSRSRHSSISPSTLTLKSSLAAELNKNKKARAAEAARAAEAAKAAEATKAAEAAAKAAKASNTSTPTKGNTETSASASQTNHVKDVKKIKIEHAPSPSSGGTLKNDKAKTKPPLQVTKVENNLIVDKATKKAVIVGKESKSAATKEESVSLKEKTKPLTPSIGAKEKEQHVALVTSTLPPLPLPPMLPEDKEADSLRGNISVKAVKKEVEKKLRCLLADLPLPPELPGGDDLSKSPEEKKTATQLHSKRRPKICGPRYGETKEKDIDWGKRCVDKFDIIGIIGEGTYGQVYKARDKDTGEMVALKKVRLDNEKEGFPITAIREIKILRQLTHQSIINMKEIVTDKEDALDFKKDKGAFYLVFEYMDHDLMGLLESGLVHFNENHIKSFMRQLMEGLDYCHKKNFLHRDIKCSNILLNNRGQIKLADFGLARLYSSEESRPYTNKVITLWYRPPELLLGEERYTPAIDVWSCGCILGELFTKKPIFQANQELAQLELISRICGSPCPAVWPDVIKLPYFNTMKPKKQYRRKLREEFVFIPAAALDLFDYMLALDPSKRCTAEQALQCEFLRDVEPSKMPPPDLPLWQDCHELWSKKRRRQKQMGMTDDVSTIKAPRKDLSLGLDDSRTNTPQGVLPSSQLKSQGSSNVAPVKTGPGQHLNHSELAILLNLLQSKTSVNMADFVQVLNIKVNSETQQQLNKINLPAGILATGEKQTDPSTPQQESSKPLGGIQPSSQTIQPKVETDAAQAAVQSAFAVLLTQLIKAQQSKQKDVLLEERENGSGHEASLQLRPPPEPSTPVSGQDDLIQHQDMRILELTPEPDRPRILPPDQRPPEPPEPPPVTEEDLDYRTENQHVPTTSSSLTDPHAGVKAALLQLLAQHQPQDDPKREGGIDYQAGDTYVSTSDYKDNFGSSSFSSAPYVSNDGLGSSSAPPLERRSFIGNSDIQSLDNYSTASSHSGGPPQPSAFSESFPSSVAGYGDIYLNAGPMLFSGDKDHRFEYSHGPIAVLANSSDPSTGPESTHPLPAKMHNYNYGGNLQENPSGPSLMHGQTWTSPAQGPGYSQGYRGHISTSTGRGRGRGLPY
Sequence of CDK13 (O75909 whole entry partner, species assumed): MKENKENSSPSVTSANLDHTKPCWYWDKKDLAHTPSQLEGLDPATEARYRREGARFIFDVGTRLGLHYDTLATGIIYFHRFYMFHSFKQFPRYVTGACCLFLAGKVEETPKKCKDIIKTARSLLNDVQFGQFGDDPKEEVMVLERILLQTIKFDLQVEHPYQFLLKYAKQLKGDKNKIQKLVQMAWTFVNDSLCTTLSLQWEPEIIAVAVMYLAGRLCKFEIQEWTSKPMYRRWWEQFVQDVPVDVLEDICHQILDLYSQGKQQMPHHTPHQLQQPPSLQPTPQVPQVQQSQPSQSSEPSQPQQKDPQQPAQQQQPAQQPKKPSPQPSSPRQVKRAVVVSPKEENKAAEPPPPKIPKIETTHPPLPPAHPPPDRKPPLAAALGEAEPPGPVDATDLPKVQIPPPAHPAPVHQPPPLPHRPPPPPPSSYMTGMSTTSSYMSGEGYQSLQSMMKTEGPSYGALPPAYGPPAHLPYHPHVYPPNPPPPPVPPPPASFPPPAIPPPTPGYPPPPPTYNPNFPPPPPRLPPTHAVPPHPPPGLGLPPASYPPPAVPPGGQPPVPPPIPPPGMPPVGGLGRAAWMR
Procedure, shortened: as §1

[3] = test system: MDA-MB-231 breast cancer cells; test: Proliferation inhibitory activity assay against MDA-MB-231 breast cancer cells; assay type: cell-based; conditions: Homo sapiens, 72 hours, CellTiter Glo, relative IC50
Procedure, shortened: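 Cells grown in L-15 with 10% FBS at 37 °C, 0% CO2, then exposed next day to compounds at 9 concentrations (DMSO vehicle) for 72 h. Viability read by CellTiter Glo luminescence; relative IC50 from dose-response curve fit.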

[4] = biological target: T1, CDK12; test: Cellular CDK12 inhibitory activity assay (Ser2 phosphorylation of RNA polymerase II subunit B1 CTD in MDA-MB-231 cells); assay type: cell-based; parameters: using MDA-MB-231 breast cancer cells; endogenous in cells; host or cells: MDA-MB-231; conditions: MDA-MB-231 cells, 6 hours treatment; read-out: pRpbl CTD S2 IC50
Procedure, shortened: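 MDA-MB-231 cells in L-15 with 10 % FBS were treated with compound at 9 concentrations for 6 h at 37 °C, 0 % CO2. In-Cell Western read phospho-Ser2 and total RNA polymerase II CTD on a Li-COR Odyssey; IC50 from 4-parameter dose-response fit.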

[5] = kinase reaction 120 minutes, 33P-gamma-ATP, read-out: CDK13 IC50

T1 sequence (Q9NYV4 whole entry, species assumed): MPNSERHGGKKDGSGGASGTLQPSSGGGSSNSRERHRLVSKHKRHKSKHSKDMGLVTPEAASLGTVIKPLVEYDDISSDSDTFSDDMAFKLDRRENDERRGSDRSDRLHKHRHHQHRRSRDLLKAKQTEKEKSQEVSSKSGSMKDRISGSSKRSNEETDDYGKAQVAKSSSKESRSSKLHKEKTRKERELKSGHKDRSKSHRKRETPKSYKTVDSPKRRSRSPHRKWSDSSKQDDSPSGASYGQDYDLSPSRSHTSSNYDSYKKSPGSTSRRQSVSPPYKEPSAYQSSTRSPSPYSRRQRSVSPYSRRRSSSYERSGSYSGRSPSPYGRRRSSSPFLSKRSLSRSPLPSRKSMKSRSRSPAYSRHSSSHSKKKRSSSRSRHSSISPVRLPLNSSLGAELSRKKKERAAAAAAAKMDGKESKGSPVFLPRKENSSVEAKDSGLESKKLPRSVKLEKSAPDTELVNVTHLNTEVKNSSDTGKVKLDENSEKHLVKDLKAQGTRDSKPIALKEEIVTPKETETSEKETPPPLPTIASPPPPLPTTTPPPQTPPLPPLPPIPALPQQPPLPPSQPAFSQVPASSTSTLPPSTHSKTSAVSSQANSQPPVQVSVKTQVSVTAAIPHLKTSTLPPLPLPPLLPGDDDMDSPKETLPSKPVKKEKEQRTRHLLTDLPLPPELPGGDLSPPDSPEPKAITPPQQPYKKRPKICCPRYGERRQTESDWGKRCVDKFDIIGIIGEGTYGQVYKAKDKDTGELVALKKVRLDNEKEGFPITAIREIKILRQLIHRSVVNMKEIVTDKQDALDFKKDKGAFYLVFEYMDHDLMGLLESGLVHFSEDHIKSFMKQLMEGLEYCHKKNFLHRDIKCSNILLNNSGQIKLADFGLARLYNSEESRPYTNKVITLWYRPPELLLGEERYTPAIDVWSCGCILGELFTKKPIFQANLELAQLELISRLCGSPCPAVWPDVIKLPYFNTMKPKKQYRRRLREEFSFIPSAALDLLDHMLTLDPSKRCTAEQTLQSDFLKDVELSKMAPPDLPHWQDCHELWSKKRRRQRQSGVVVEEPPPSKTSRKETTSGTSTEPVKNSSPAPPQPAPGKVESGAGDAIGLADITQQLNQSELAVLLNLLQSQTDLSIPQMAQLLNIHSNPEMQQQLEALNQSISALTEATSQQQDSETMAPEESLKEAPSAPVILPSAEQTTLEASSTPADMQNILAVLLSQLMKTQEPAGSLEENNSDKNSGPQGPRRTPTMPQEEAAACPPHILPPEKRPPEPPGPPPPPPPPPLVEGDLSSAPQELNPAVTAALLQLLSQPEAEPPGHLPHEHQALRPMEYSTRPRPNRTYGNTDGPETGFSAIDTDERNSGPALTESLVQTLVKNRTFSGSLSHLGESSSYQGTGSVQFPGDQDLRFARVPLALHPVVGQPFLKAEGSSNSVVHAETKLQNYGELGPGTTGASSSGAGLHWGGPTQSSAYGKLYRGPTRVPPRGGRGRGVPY
T1 sequence (O75909 whole entry partner, species assumed): as the sequence (O75909 whole entry partner, species assumed) above

SMILES	IC50 [1]	IC50 [2, 5]	IC50 [3]	IC50 [4]	IC50 [2]
FC(F)(F)c1cnc2c(NCc3cc4ccccn4n3)cc(N3CCOCC3)nn12 [Example 86, 6-morpholino-N-(pyrazolo[1,5-a]pyridin-2-ylmethyl)-3-(trifluoromethyl)imidazo [1,2-b]pyridazin-8-amine]	< 100 nM	< 100 nM	> 500 nM	300 to 3000 nM	
FC(F)(F)c1cnc2c(NCc3cc4ncccc4[nH]3)cc(N3CCOCC3)nn12 [Example 87, N-((1H-pyrrolo[3,2-b]pyridin-2-yl)methyl)-6-morpholino-3-(trifluoromethyl)imidazo[1,2-b]pyridazin-8-amine]	< 100 nM		50 to 500 nM	300 to 3000 nM	< 100 nM
Cc1cc(C)n2cc(CNc3cc(N4CCOCC4)nn4c(C(F)(F)F)cnc34)nc2n1 [Example 88, N-((5,7-dimethylimidazo[1,2-a]pyrimidin-2-yl)methyl)-6-morpholino-3-(trifluoromethyl)imidazo[1,2-b]pyridazin-8-amine]	< 100 nM		50 to 500 nM	300 to 3000 nM	< 100 nM
FC(F)(F)c1cnc2c(NCc3cc4ncccn4n3)cc(N3CCOCC3)nn12 [Example 89, 6-morpholino-N-(pyrazolo[1,5-a]pyrimidin-2-ylmethyl)-3-(trifluoromethyl)imidazo[1,2-b]pyridazin-8-amine]	< 100 nM		> 500 nM	> 3000 nM	< 100 nM
FC(F)(F)c1cnc2c(NCc3nc4cc(Cl)c(Cl)cc4o3)cc(N3CCOCC3)nn12 [Example 91, N-((5,6-dichlorobenzo[d]oxazol-2-yl)methyl)-6-morpholino-3-(trifluoromethyl)imidazo[1,2-b]pyridazin-8-amine]	> 500 nM	> 500 nM	50 to 500 nM	300 to 3000 nM	
NC(=O)N1CCN(c2cc(NCc3nc4ccc(F)c(F)c4[nH]3)c3ncc(C(F)(F)F)n3n2)CC1 [Example 92, 4-(8-(((6,7-difluoro-1H-benzo[d]imidazol-2-yl)methyl)amino)-3-(trifluoromethyl)imidazo[1,2-b]pyridazin-6-yl)piperazine-1-carboxamide]	< 100 nM		50 to 500 nM	300 to 3000 nM	< 100 nM
FC(F)(F)c1cnc2c(NCc3nc4cc(Cl)c(Cl)cc4s3)cc(N3CCOCC3)nn12 [Example 93, N-((5,6-dichlorobenzo[d]thiazol-2-yl)methyl)-6-morpholino-3-(trifluoromethyl)imidazo[1,2-b]pyridazin-8-amine]	> 500 nM	> 500 nM	50 to 500 nM	300 to 3000 nM	
FC(F)(F)c1cnc2c(NCc3nc4cc(Cl)c(Cl)cc4[nH]3)cc(N3CC4CCC(C3)N4)nn12 [Example 94, 6-(3,8-diazabicyclo[3.2.1]octan-3-yl)-N-((5,6-dichloro-1H-benzo[d]imidazol-2-yl)methyl)-3-(trifluoromethyl)imidazo[1,2-b]pyridazin-8-amine]	< 100 nM	< 100 nM	≤ 50 nM	< 300 nM	
FC(F)(F)c1cnc2c(NCc3nc4cc(Cl)c(Cl)cc4[nH]3)cc(N3C4CCC3CNC4)nn12 [Example 95, 6-(3,8-diazabicyclo[3.2.1]octan-8-yl)-N-((5,6-dichloro-1H-benzo[d]imidazol-2-yl)methyl)-3-(trifluoromethyl)imidazo[1,2-b]pyridazin-8-amine]	< 100 nM	< 100 nM	≤ 50 nM	< 300 nM	
CN1CC2CCC(C1)N2c1cc(NCc2nc3cc(Cl)c(Cl)cc3[nH]2)c2ncc(C(F)(F)F)n2n1 [Example 96, N-((5,6-dichloro-1H-benzo[d]imidazol-2-yl)methyl)-6-(3-methyl-3,8-diazabicyclo[3.2.1]octan-8-yl)-3-(trifluoromethyl)imidazo[1,2-b]pyridazin-8-amine]	100 to 500 nM	< 100 nM	≤ 50 nM	< 300 nM	
FC(F)(F)c1cnc2c(NCc3nc4cc(Cl)c(Cl)cc4[nH]3)cc(N3CC4CC(C3)N4)nn12 [Example 97, 6-(3,6-diazabicyclo[3.1.1]heptan-3-yl)-N-((5,6-dichloro-1H-benzo[d]imidazol-2-yl)methyl)-3-(trifluoromethyl)imidazo[1,2-b]pyridazin-8-amine]	< 100 nM	< 100 nM	≤ 50 nM	< 300 nM	
CN1C2CC1CN(c1cc(NCc3nc4cc(Cl)c(Cl)cc4[nH]3)c3ncc(C(F)(F)F)n3n1)C2 [Example 98, N-((5,6-dichloro-1H-benzo[d]imidazol-2-yl)methyl)-6-(6-methyl-3,6-diazabicyclo[3.1.1]heptan-3-yl)-3-(trifluoromethyl)imidazo[1,2-b]pyridazin-8-amine]	< 100 nM	< 100 nM	≤ 50 nM	< 300 nM	
FC(F)(F)c1cnc2c(NCc3nc4cc(Cl)c(Cl)cc4[nH]3)cc(N3C4CNCC3C4)nn12 [Example 99, 6-(3,6-diazabicyclo[3.1.1]heptan-6-yl)-N-((5,6-dichloro-1H-benzo[d]imidazol-2-yl)methyl)-3-(trifluoromethyl)imidazo[1,2-b]pyridazin-8-amine]	100 to 500 nM	100 to 500 nM	≤ 50 nM	< 300 nM	
CN1CC2CC(C1)N2c1cc(NCc2nc3cc(Cl)c(Cl)cc3[nH]2)c2ncc(C(F)(F)F)n2n1 [Example 100, N-((5,6-dichloro-1H-benzo[d]imidazol-2-yl)methyl)-6-(3-methyl-3,6-diazabicyclo[3.1.1]heptan-6-yl)-3-(trifluoromethyl)imidazo[1,2-b]pyridazin-8-amine]	< 100 nM	< 100 nM	≤ 50 nM	< 300 nM	
OC1CC2CCC(C1)N2c1cc(NCc2nc3cc(Cl)c(Cl)cc3[nH]2)c2ncc(C(F)(F)F)n2n1 (stereo not shown) [Example 101, 8-(8-(((5,6-dichloro-1H-benzo[d]imidazol-2-yl)methyl)amino)-3-(trifluoromethyl)imidazo[1,2-b]pyridazin-6-yl)-8-azabicyclo[3.2.1]octan-3-ol]	100 to 500 nM	< 100 nM	≤ 50 nM	< 300 nM	
O=C(CO)N1CCN(c2cc(NCc3nc4cc(Cl)c(Cl)cc4[nH]3)c3ncc(C(F)(F)F)n3n2)CC1 [Example 102, 1-(4-(8-(((5,6-dichloro-1H-benzo[d]imidazol-2-yl)methyl)amino)-3-(trifluoromethyl)imidazo[1,2-b]pyridazin-6-yl)piperazin-1-yl)-2-hydroxyethan-1-one]	< 100 nM	< 100 nM	≤ 50 nM	< 300 nM	
O=C(CO)NC1CN(c2cc(NCc3nc4cc(Cl)c(Cl)cc4[nH]3)c3ncc(C(F)(F)F)n3n2)C1 [Example 103, N-(1-(8-(((5,6-dichloro-1H-benzo[d]imidazol-2-yl)methyl)amino)-3-(trifluoromethyl)imidazo[1,2-b]pyridazin-6-yl)azetidin-3-yl)-2-hydroxyacetamide]	< 100 nM	< 100 nM	50 to 500 nM	300 to 3000 nM	
Fc1cc2nc(CNc3cc(N4CCNCC4)nn4c(C(F)(F)F)cnc34)[nH]c2cc1F [Example 109]	< 100 nM	< 100 nM	≤ 50 nM	< 300 nM	
CN1CCN(c2cc(NCc3nc4cc(F)c(F)cc4[nH]3)c3ncc(C(F)(F)F)n3n2)CC1 [Example 110, N-((5,6-difluoro-1H-benzo[d]imidazol-2-yl)methyl)-6-(4-methylpiperazin-1-yl)-3-(trifluoromethyl)imidazo[1,2-b]pyridazin-8-amine]	< 100 nM	< 100 nM	≤ 50 nM	< 300 nM	
NC1CCN(c2cc(NCc3nc4cc(F)c(F)cc4[nH]3)c3ncc(C(F)(F)F)n3n2)CC1 [Example 111, 6-(4-aminopiperidin-1-yl)-N-((5,6-difluoro-1H-benzo[d]imidazol-2-yl)methyl)-3-(trifluoromethyl)imidazo[1,2-b]pyridazin-8-amine]	< 100 nM	< 100 nM	≤ 50 nM	< 300 nM	
C[C@@H]1CN(c2cc(NCc3nc4cc(F)c(F)cc4[nH]3)c3ncc(C(F)(F)F)n3n2)C[C@H](C)N1 [Example 112, N-((5,6-difluoro-1H-benzo[d]imidazol-2-yl)methyl)-6-((3S, 5R)-3,5-dimethylpiperazin-1-yl)-3-(trifluoromethyl)imidazo[1,2-b]pyridazin-8-amine]	< 100 nM	< 100 nM	≤ 50 nM	< 300 nM	
Nc1ncc(-c2cc(NCc3nc4cc(F)c(F)cc4[nH]3)c3ncc(C(F)(F)F)n3n2)cn1 [Example 113, 6-(2-aminopyrimidin-5-yl)-N-((5,6-difluoro-1H-benzo[d]imidazol-2-yl)methyl)-3-(trifluoromethyl)imidazo[1,2-b]pyridazin-8-amine]	< 100 nM	< 100 nM	≤ 50 nM	< 300 nM	
